Entries after “also recorded” stand apart in the source; their conditions may differ.

One series deals with Human Liver Carcinoma. Description: Tumour growth assay, human liver carcinoma in CD-1 nude mice. The format is in vivo.
Series [1] is described as follows: Phase I single agent study of SEQ ID NO:1 in patients with solid tumours or melanoma. The format is in vivo, human.
The subject of series [2] is SK-OV-3 human ovary adenocarcinoma cells. The series can be described thus: SK-OV-3 ovary tumour xenograft in CD-1 nude mice. The format is in vivo. How it is done: SK-OV-3 human ovary adenocarcinoma cells (1×10^7 cells in 100 μl of PBS) were subcutaneously injected into the right flank of 6-7 weeks old female CD-1 nude mice. After the size of tumour reached an approximate volume of 100 mm^3, 6 days post tumour cell injection, SEQ ID NO:1 was administered by bolus infusion into the tail vein every other day at 10 mg/kg 17 times. Control animals received saline alone for the same period. Antitumour effect of SEQ ID NO: 1 was further compared to that of taxol or cisplatin alone or in combination. Taxol was administered intravenously once a week for first three weeks and intraperitoneally once a week for next two weeks at a dose of 10 mg/kg. Cisplatin was administered intravenously once a week for first three weeks and intraperitoneally once a week for next two weeks at a dose of 4 mg/kg. All treatments were stopped at day 40. Antitumour activities were estimated by the inhibition of tumour volume, which was measured with caliper. Each point represents mean tumour volume calculated from 9 animals per experimental group.

For a further series, the system named is Burkitt's Lymphoma. The series can be described thus: Survival assay, Burkitt's lymphoma in mice. The format is in vivo, human. On the procedure: For the study of the effect of the compositions on leukaemias, the animals are grafted with a particular number of cells, and the anti-tumour activity is determined by the increase in the survival time of the treated mice relative to the controls.

In series [3] the test system is MDA-CDDP-S4 human Cisplatin-resistant breast adenocarcinoma cells. Description: MDA-CDDP-S4 Cisplatin-resistant breast adenocarcinoma, fat pad injection in SCID mice. The format is in vivo. The following applies: for Tumour weight as % of saline control: MDA-CDDP-S4 (breast), Cisplatin resistance, SCID. How it is done: MDA-CDDP-S4 human in vivo-selected Cisplatin-resistant breast adenocarcinoma cells (4×10^6 cells in 100 μl of PBS) were injected into the fat pad (inside of right leg) of 6-7 weeks old female SCID mice. After the size of tumour reached an approximate volume of 100 mm^3, 7 days post tumour cell injection, SEQ ID NO:1 was administered by bolus infusion into the tail vein every other day at 10 mg/kg 9 times. Control animals received saline alone for the same period. Antitumour effect of SEQ ID NO: 1 was further compared to that of Cisplatin or Taxol alone. Cisplatin was adminstered intravenously once a week for three weeks at a dose of 4 mg/kg. Taxol was administered intravenously once a week for three weeks at a dose of 10 mg/kg. Antitumour activities were estimated by the inhibition of tumour volume, which was measured with caliper. Each point represents mean tumour volume calculated from 10 animals per experimental group. […] As expected, treatment with Cisplatin during the same period was ineffective against Cisplatin-resistant tumour.
MDA-CDDP-S4 human in vivo-selected Cisplatin-resistant breast adenocarcinoma cells (4×10^6 cells in 100 μl of PBS) were injected into the fat pad (inside of right leg) of 6-7 weeks old female CB-17 SCID mice. After the size of tumour reached an approximate volume of 100 mm^3, 9 days post tumour cell injection, SEQ ID NO:1 was administered by bolus infusion into the tail vein every other day at 10 mg/kg. Control animals received saline alone for the same period. Antitumour effect of SEQ ID NO:1 was further compared to that of Taxol alone and in combination. Taxol was administered i.p. once a week at a dose of 10 mg/kg. Antitumour activities were estimated by the inhibition of tumour volume FIG. 22A), which was measured with calipers. Each point represents mean tumour volume calculated from 10 animals per experimental group. Animals were sacrificed and tumour weights taken at the end of the study (FIG. 22C). […] This study was repeated with similar results (FIG. 22B).

The test system of series [4] is A2058 human melanoma cells. Description: A2058 melanoma xenograft in CD-1 nude mice. The format is in vivo. How it is done:
A2058 human melanoma cells 1×10^7 cells in 100 μl of PBS) were subcutaneously injected into the right flank of 6-7 week old female CD-1 nude mice. A2058 is a metastatic melanoma cell line. After the size of tumour reached an approximate volume of 100 mm^3, 6 days post tumour cell injection, SEQ ID NO:1 was administered by bolus infusion into the tail vein every other day at 10 mg/kg. Control animals received saline alone for the same period. Antitumour effect of SEQ ID NO:1 was further compared to that of dacarbazine (DTIC) alone or that of SEQ ID NO:1 in combination with DTIC. DTIC was administered intravenously for 5 days in a row from day 6-10 at a dose of 80 mg/kg in 100 μl saline. All treatments were stopped at day 24. A day after the last treatment, tumours were excised from the animals and their weights were measured.

In series [5] the test system is Hela S3 human cervix epitheloid carcinoma cells. The series can be described thus: Hela S3 hydroxyurea resistant cervix carcinoma xenograft in SCID mice. The format is in vivo. On the procedure:
Hela S3 human cervix epitheloid carcinoma cells (5×10^5 cells in 100 μl of PBS) were subcutaneously injected into the right flank of 6-7 weeks old female SCID mice. Hela S3 is a hydroxyurea resistant cell line. After the size of tumour reached an approximate volume of 100 mm^3, 3 days post tumour cell injection, SEQ ID NO:1 was administered by bolus infusion into the tail vein every other day at 10 mg/kg 6 times. Control animals received saline alone for the same period. Antitumour effect of SEQ ID NO:1 was further compared to that of Hydroxyurea or Cisplatin alone or in combination. Hydroxyurea was administered intraperitoneally every day at a dose of 250 mg/kg for 10 days. Cisplatin was administered intravenously once a week for three weeks at a dose of 4 mg/kg. Antitumour activities were estimated by the inhibition of tumour volume, which was measured with caliper. Each point represents mean tumour volume calculated from 10 animals per experimental group. […] As expected, treatment with Hydroxyurea during the same period was ineffective against Hydroxyurea-resistant tumour.

Take “GGCTAAATCGCTCCACCAAG (chemistry not given here) [SEQ ID NO: 1, antisense oligonucleotide that hybridizes to the coding region of human ribonucleotide reductase R2 mRNA]”: in the series on Human Liver Carcinoma, the “Inhibition of tumour weight” value is “approximately 65%”. Further, in series [1] (human subjects), the “dose with no evidence of toxicity” value is on record as 148.0 mg/m^2/day. For the same sequence, the “maximum tolerated dose (MTD)” value in series [1] (patients with solid tumours or melanoma) is given as 222.0 mg/m^2/day. Also, the “antitumour effect (tumour volume)” value in series [2] (SEQ ID NO:1 10 mg/kg 17 times, taxol 10 mg/kg, cisplatin 4 mg/kg once a week) is “significant delay of tumour growth”; in series [3] (Example 13.3, SEQ ID NO:1 10 mg/kg 9 times, Cisplatin 4 mg/kg, Taxol 10 mg/kg i.v. weekly for three weeks), “significant reduction of tumour weight”; in series [5] (SEQ ID NO:1 10 mg/kg 6 times, Hydroxyurea 250 mg/kg i.p. 10 days, Cisplatin 4 mg/kg i.v. weekly), “significant delay of tumour growth; also recorded: superior to the inhibitory effects observed with Cisplatin alone”. Also, the “tumour volume data as percentage of saline control” value in series [2] (SK-OV-3 (ovary), Mouse CD-1) came to 42%. Moreover, the “effect of treatment on survival” value with Burkitt's Lymphoma (first entry) and in the series on Burkitt's Lymphoma (second entry) was “Treatment prolonged survival” in each case. Moreover, in the series with Burkitt's Lymphoma (first entry, untreated died by day 23, one treated mouse died at day 69), the “survival of treated mice” value is given as “Treated mice survived beyond day 73”. The “survival of all treated mice (end of the experimental period)” value in the series on Burkitt's Lymphoma (second entry, untreated died by day 20) is on record as “the experimental period (140 days)”. Besides, the “antitumour effect (tumour volume, tumour weight)” value in series [3] (Example 13.4, CB-17 SCID mice, SEQ ID NO:1 10 mg/kg every other day, Taxol 10 mg/kg i.p. weekly) was “significant reduction of tumour weight; also recorded: superior to the inhibitory effects observed with Taxol”. The “Tumour weight as % of saline control” value turned out to be 18% in series [3] (Taxol combination study, first of two value columns); 41% in series [3] (Taxol combination study, second of two value columns); 32% in series [3] (study with Taxol and Cisplatin alone); 20% in series [4] (A2058 (melanoma), Mouse CD-1); 24% in series [5] (Hela S3 (cervix), hydroxyurea resistance, SCID). Also, in series [4] (SEQ ID NO:1 10 mg/kg every other day i.v., DTIC 80 mg/kg i.v. 5 days), the “antitumour effect (tumour weight)” value is reported as “significant delay of tumour growth; also recorded: superior to the inhibitory effects observed with DTIC alone”.
